Key:
[1] = target: T1, native U1 snRNP + SMN2 5' ss oligo (Homo sapiens, UniProt P09234); assay: FP: native U1 snRNP binding to SMN2 5' ss oligo with DMSO or compound; details: Fig. 1B; 10 μM branaplam
T1 construct: we added a large excess of full-length U1C (800 nM) expressed in and purified from E. coli; endogenous in cells; host or cells: HeLa-S3 with CRISPR knock-in of a C-terminal HTP tag on U1A; the added U1C came from E. coli
Method: (§1) We engineered a protein A-tag on U1A in HeLa cells using CRISPR-Cas9 and purified native U1 snRNP using the protein A tag and IgG resin (Supplementary Fig. 1A). […] Since U1C is weakly associated with U1 snRNP and may fall off at low U1 snRNP concentrations, we added a large excess of full-length U1C (800 nM) expressed in and purified from E. coli in all binding reactions unless otherwise stated.
(§2) U1A-HTP cells were adapted to grow in suspension in Joklik’s MEM (Sigma) supplemented with 5% (v/v) newborn calf serum and 1× Pluronic™ F-68 (Gibco). […]
(§3) All of 5′-FAM labeled RNA oligos used in this study were synthesized and purified by IDT (USA). Fluorescence polarization (FP) assays were performed in binding buffer (20 mM HEPES pH 7.5, 1 mM MgCl2, 200 mM KCl, 0.01% TritonX-100, 0.1%PEG3350, 2%DMSO) at room temperature using a Envision HTS Plate Reader system (Revvity). […] The equilibrium dissociation constants (Kd) of binding reaction were calculated using the following single-site binding model formula in GraphPad Prism: y=START+(END−START)x/kD+x where x and y represent the concentration of U1 snRNP (or U1 snRNA) and the polarization value measured respectively, START represents the polarization value of protein-free nucleic acid probe, END represents the maximum polarization value when U1 snRNP (or U1 snRNA) binds to the fluorescently labeled 5′ ss oligo. […]

[2] = target: T2, native U1 snRNP + HTT 5' ss oligo (Homo sapiens, UniProt P09234); assay: FP: native U1 snRNP binding to HTT 5' ss oligo; details: Fig. 1C; 10 μM branaplam
T2 construct: we added a large excess of full-length U1C (800 nM) expressed in and purified from E. coli; endogenous in cells; host or cells: HeLa-S3 with CRISPR knock-in of a C-terminal HTP tag on U1A; the added U1C came from E. coli
Method: as §1, §2, §3

[3] = test system: 5' end of U1 snRNA + HTT 5' ss oligo with -1A deleted; assay: FP: 5' end of U1 snRNA + HTT 5' ss oligo with -1A deleted (Supplementary Fig. 5D); format: binding, human
Method: (§4) To ensure the presence of a −1A bulge in the RNA duplex, we extended the U1 snRNA to nucleotide 1–16 and generated an artificial HTT 5′ ss oligo that added 4 additional nucleotides upstream of the −4C nucleotide to ensure stable base pairing upstream of the potential −1A bulge.
as §3

[4] = test system: full length U1 snRNA + HTT 5' ss oligo with -1A deleted; assay: FP: full-length U1 snRNA + HTT 5' ss oligo with -1A deleted (Supplementary Fig. 5E); format: binding, human
Method: as §4, §3

[5] = test system: U1 snRNA nucleotide 1-16 + artificial HTT 5' ss oligo; assay: FP: U1 snRNA nucleotide 1-16 + artificial HTT 5' ss oligo with -1A bulge (Supplementary Fig. 5F); format: binding, human
Method: as §4, §3

[6] = test system: SMN2 pre-mRNA + native or reconstituted U1 snRNP; assay: Pull-down of native or reconstituted U1 snRNP by immobilized SMN2 pre-mRNA; format: binding, human; details: Fig. 1F; 50 μM Branaplam vs 0.5% DMSO
Source text: In this assay, we immobilized Minx (as a positive control with a canonical 5′ ss) or SMN2 pre-mRNA containing the weak 5′ ss of exon 7 on amylose resin, pulled down either native or reconstituted U1 snRNP, and analyzed the RNAs in the pulldown samples as a surrogate of the amount of U1 snRNP bound to the pre-mRNA.
The SMN2 pre-mRNA fragment used in pull down experiment contains 100 nt up and downstream of the 5′ ss of SMN2 intron 7 followed by three copies of MS2 tag. It was cloned downstream of a T7 promoter in the Sp72 vector. The SMN2 pre-mRNA was in vitro transcribed and purified by 7 M Urea denaturing gel.
The complex was then incubated with amylose resin and washed with the same buffer. The resins were treated in 5 μl buffer containing 1 mg/ml proteinase K at 37 °C for 30 min to release the RNAs. The resulting samples were run on 6% denaturing polyacrylamide gel and stained with Sybr Gold to visualize the RNAs.

[7] = test system: SMN2 exon 7 skipping, HEK293T cells; assay: SMN2 splicing minigene reporter assay (luciferase); format: cell-based; details: Homo sapiens, HEK-293T, Fig. 3A, 36 h, 0.012 to 9 µM
Method: Exon 7 inclusion places the GLuc gene out of frame, thereby reducing luciferase activity. […] Transfection was performed in 10 cm dishes using Lipofectamine 2000 (Thermo, #11668019) according to the manufacturer’s protocol. […] Compounds were dispensed in duplicate across a 1:3 serial dilution series ranging from 0.012 to 9 µM. Following a 36 h incubation at 37 °C, luciferase activity was assessed by adding 12 µL of a custom luciferase reagent to each well. The luciferase reagent (12 mL total volume) consisted of 60 µL 50× coelenterazine substrate (Nanolight, #320), 3 mL Nanolight GLuc buffer, 30 µL 10% Triton X-100 (Thermo, #A16046.AP), and 8.9 mL deionized water. Plates were shaken at 600 rpm for 6 min, and luminescence was measured using a Cytation 5 multimode plate reader (BioTek). Half-maximal effective concentration (EC50) values were calculated using GraphPad Prism (v10.4) with four-parameter nonlinear regression curve fitting.

[8] = test system: cassette exon / GA/GU iExon inclusion, HEK293 cells, scr siRNA; assay: RNA-seq splicing analysis, compound dose response, scrambled (mock) siRNA; format: cell-based, human
Source text: (§5) Skipped exons are highly enriched for noncanonical 5′ ss sequences (on either the intronic or exonic side), which account for 90% of skipped exons (Supplementary Fig. 8C). For example, among skipped exons with a canonical exonic 5′ ss sequence, 74% contain noncanonical intron sequence. These observations are consistent with the previous published role for U1C stabilization of the U1 snRNA-pre-mRNA duplex at the 5′ ss[25]–[28]. […] We will refer to these as class I exons for clarity in later discussion.
(§6) We next examined the effect of U1C knockdown on compound-mediated splicing. […] We next used the complete dose response to calculate the effective concentration at which deltaPSIcompound-DMSO is 30 (EC-dPSI30).
(§7) HEK293T cells were grown in DMEM media with 10% FBS. 500,000 cells in 1.75 mL of media were plated into a 6-well plate for approximately 6 h. Either siRNA negative control (ThermoFisher Silencer^TM Negative control #2, AM4613) or U1C siRNA (ThermoFisher Silencer^TM Select Pre-designed siRNA, S13225) were transfected for a final concentration of 25 nM using Invitrogen Lipofectamine RNAiMax (13778-150). In brief, 10 μL 5 μM siRNA was added to 115 μL of OptiMEM, while 5 μL Lipofectamine added to 120 μL OptiMEM for 5 minu before mixing the solutions and incubating for 20 min. 250 μL of Lipofectamine:siRNA solution was gentle added to the 1.75 mL cells. After 24 h post-transfection, cells were treated with 10 μL compound resuspended in DMSO. […] Each compound-treated experimental condition was treated and collected in duplicate, while four DMSO only treated samples per siRNA transfection were collected. RNA was isolated using KingFisher^TM Apex instrument and the MagMAX™ mirVana™ Total RNA Isolation Kit (A27828) by Thermo Fisher according to manufacturer’s protocol. Isolated RNA was submitted to Admera Health for library preparation (polyA selected, stranded) and mRNA-sequencing and >20 M 150 bp pair-end reads were returned.
RNAseq and splicing analysis were described earlier using DEDseq (https:// github.com/liwc01/DEDSeq[18]) with minor modifications. RNA sequencing reads were mapped to human genome (hg19) using STAR (version 2.7.10b); only uniquely mapped reads (with MAPQ > 10) with <5 nt/100 nt mismatches and properly paired reads were used. For splicing analysis, all junction reads (read with a gap in alignment indicating splicing) were used, including the ones mapped to unannotated splice sites. Reads were counted for different exons (for cassette exon [CE]) or exonic regions (for A5′ss or A3′ss). For each splicing event, a percent-spliced-in (PSI) value was calculated using the percent of average read number supporting the inclusion among all reads supporting either the inclusion or the exclusion. A minimum of 10 for the denominator of PSI calculation was required. Otherwise, a “NA” value would be generated. PSI values for biological replicates were averaged, and the PSI difference between the two treatment groups was calculated. For a statistical test, a 2 × 2 read counts table was made for each event, with rows for reads supporting inclusion or exclusion, and columns for the two comparing sample groups. Fisher’s exact test was used for the statistical tests. For biological replicates, each pair of the testing and control sample was analyzed by Fisher’s exact test and the geometric mean of all P-values was reported as a final P-value. PSI change (deltaPSI) of >10% (or < −10%) and P < 0.001 was used to select splicing events being regulated by the treatment. PSI calculation, Fisher’s exact test were performed using R (4.0.5). 5′ ss composition analysis was performed as described in ref. [25]. Potency of splicing modulator was determined by plotting dPSI and identifying the concentration at which the change in PSI reached 30% and reported as EC_dPSI30.

[9] = test system: cassette exon / GA/GU iExon inclusion, HEK293 cells, U1C KD; assay: RNA-seq splicing analysis, compound dose response, U1C knockdown; format: cell-based, human
Source text: as §5, §6, §7
RNAseq and splicing analysis were described earlier using DEDseq (https:// github.com/liwc01/DEDSeq[18]) with minor modifications. RNA sequencing reads were mapped to human genome (hg19) using STAR (version 2.7.10b); only uniquely mapped reads (with MAPQ > 10) with <5 nt/100 nt mismatches and properly paired reads were used. For splicing analysis, all junction reads (read with a gap in alignment indicating splicing) were used, including the ones mapped to unannotated splice sites. Reads were counted for different exons (for cassette exon [CE]) or exonic regions (for A5′ss or A3′ss). For each splicing event, a percent-spliced-in (PSI) value was calculated using the percent of average read number supporting the inclusion among all reads supporting either the inclusion or the exclusion. A minimum of 10 for the denominator of PSI calculation was required. Otherwise, a “NA” value would be generated. PSI values for biological replicates were averaged, and the PSI difference between the two treatment groups was calculated. For a statistical test, a 2 × 2 read counts table was made for each event, with rows for reads supporting inclusion or exclusion, and columns for the two comparing sample groups. […] For biological replicates, each pair of the testing and control sample was analyzed by Fisher’s exact test and the geometric mean of all P-values was reported as a final P-value. […] Potency of splicing modulator was determined by plotting dPSI and identifying the concentration at which the change in PSI reached 30% and reported as EC_dPSI30.

[10] = test system: c12orf4 iExon 1a, DENND4A, SCO1, DPH1 iExon inclusion; assay: End-point RT-PCR of iExon inclusion, scr control versus U1C KD; format: cell-based, human; details: c12orf4 iExon 1a and DENND4A; 3uM, 1uM, 250nm, 100nM
Method: A total of 500,000 SH-SY5Y cells were plated in 6-well tissue culture plates. After 4 h of recovery, cells were transfected with final 100 nM siRNA (silencer select s13212 or negative control No.2 from Ambion) using Lipofectamin RNAi Max (ThermoFisher) according to the manufacturer’s protocol. After 24 h incubation, cells were treated with splicing modulating compounds for additional 24 h. Cells were lysed in RLT buffer ( + beta-mercaptoethanol) and RNA was extracted using the RNeasy kit (Qiagen) according to the manufacturer’s protocol.
Knockdown was confirmed by RT-qPCR using TaqMan assays (Hs00863364_gH, Hs02758991_g1, from ThermoFisher). Splicing changes were confirmed by endpoint PCR using the primer sets listed in Supplementary Table 1. Relative amounts of U1C RNA were calculated for control knockdown vs. U1C knockdown (normalized to GAPDH expression level).
HEK293 cells were transfected for siRNA in 6-well plates, similarly as for RNA-sequencing above. […] Overexpression of 1.5 μg pMEV-2HA-EV or pMEV-U1C-2HA was carried out with Lipofectamine3000 (L3000008) 6 h later. RNA was harvested 24 h later, extracted as above, and reverse transcribed with a Qiagen QuantiTect RT kit (205311). […]

[11] = test system: splicing events in human SH-SY5Y cells; details: 24 nM (approximately 2 times the IC50 for HTT), 24 h; cited from earlier work

increase of binding affinity by compound versus DMSO [1]: about twofold
increase of binding affinity by compound versus DMSO [2]: about twofold
effect of compound on binding [3]: not improved
effect of compound on binding [4]: not improved
effect of compound on binding affinity [5]: no effect
effect of U1C knockdown on compound potency by end-point PCR [10]: reduces
SMILES: CC1(C)CC(Oc2ccc(-c3ccc(-c4cn[nH]c4)cc3O)nn2)CC(C)(C)N1 [Branaplam, branaplam]
amount of native or reconstituted U1 snRNP pulled down by SMN2 pre-mRNA [6]: significantly increased
EC50 [7]: 0.0596 µM
PSI of CMSS1 iExon ([8]; 5nM branaplam): 6
PSI of WNK4 iExon ([8]; 5nM branaplam): 6.7
PSI of PDXDC1 iExon ([8]; 5nM, mock, DMSO baseline […]): 2.9 PSI
geomean pEC_dPSI30 for all GA/GU iExons ([8]; Fig. 8C, mock knockdown, -log10 of compound concentration when dPSI achieves 30%): 6.61
number of exons with GA/GU 5' ss significantly induced with deltaPSI compound-DMSO >10 ([8]; highest concentration of branaplam): approximately 1200
saturation PSI of PDXDC1 iExon ([8]; highest dose, mock and U1C KD reach similar saturation): ~50
PSI of PDXDC1 iExon ([9]; 5nM, U1C KD, DMSO baseline […]): 2.6 PSI
U1CKD Log10 effect ([9]; Fig. 8C picture, pEC-dPSI30 mock versus U1C KD): -0.51
geomean pEC_dPSI30 for all GA/GU iExons ([9]; Fig. 8C, U1C KD): 6.10
number of splicing events affected [11]: 165

— paper PMC13500670, “The U1 snRNP protein U1C and Helix H of U1 snRNA are critical for small molecule splicing modulator function” (Nature Communications, 2026)
